These results are taken from paper PMC10044159, “Inhibitory effects of sulfenimides on human and bovine carbonic anhydrase enzymes” (Journal of Enzyme Inhibition and Medicinal Chemistry, 2023).

One assay has as its target T1, hCA-II (Homo sapiens, UniProt P00918).
T1 construct: gene CA2
Put plainly: CO2 hydratase assay (Wilbur-Anderson). Format: biochemical. The text has this: CO2 hydratase assay (Wilbur-Anderson) on hCA-II

A further assay addresses T2, hCA-I (Homo sapiens, UniProt P00915).
T2 construct: gene CA1
Put plainly: CO2 hydratase assay (Wilbur-Anderson). The format is biochemical. The text has this: CO2 hydratase assay (Wilbur-Anderson) on hCA-I

T2 sequence (P00915 2-261): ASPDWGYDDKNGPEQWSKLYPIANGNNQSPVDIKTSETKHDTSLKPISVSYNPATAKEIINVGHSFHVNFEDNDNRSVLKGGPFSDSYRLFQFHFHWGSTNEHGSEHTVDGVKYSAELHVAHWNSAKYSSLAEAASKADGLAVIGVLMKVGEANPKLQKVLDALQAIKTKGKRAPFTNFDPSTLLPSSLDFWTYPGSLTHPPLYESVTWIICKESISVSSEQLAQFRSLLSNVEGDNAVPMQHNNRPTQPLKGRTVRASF

By Ki is commonly meant the equilibrium dissociation constant of an inhibitor or competing ligand from its target. On to `O=C1c2ccccc2C(=O)N1Sc1ccccc1` [1a], for which the Ki on hCA-II turned out to be 0.0515 µM; on hCA-I, 0.0585 µM.

For the molecule `O=C1c2ccccc2C(=O)N1SCc1ccccc1` [1g], the Ki on hCA-II was found to be 0.052 µM; on hCA-I, 0.0408 µM.

As for `O=C1c2ccccc2C(=O)N1Sc1ccc(Cl)cc1` [1e], the Ki at hCA-II worked out at 0.143 µM; at hCA-I, 0.0321 µM.

With `O=C1c2ccccc2C(=O)N1Sc1ccc([N+](=O)[O-])cc1` [1d], the inhibitory constant (Ki) is 0.152 µM at hCA-II and 0.119 µM at hCA-I.

With `O=C1c2ccccc2C(=O)N1SC1CCCCC1` [1h], the inhibition constant Ki stood at 0.0617 µM at hCA-II and 0.0503 µM at hCA-I.

On to `COc1ccc(SN2C(=O)c3ccccc3C2=O)cc1` [1c], for which the Ki on hCA-II was found to be 0.06 µM; on hCA-I, 0.0379 µM.

For the molecule `O=C1c2ccccc2C(=O)N1Sc1ccc(Br)cc1` [1f], the values for the inhibition constant (Ki) at hCA-II and at hCA-I were 0.044 µM and 0.023 µM, respectively.

With `O=C1c2ccccc2C(=O)N1Sc1nc2ccccc2[nH]1` [1i], the Ki was 0.0546 µM on hCA-II and 0.0254 µM at hCA-I.
